Patent publication US11117855B2, “Crystalline form of triethylenetetramine tetrahydrochloride and its pharmaceutical use” (Orphalan S.A., priority 2018, dated 2021)
“And” between values parts separate entries of the source, which are not always exact repeats. Equal entries are not always repeated. Where two headings read alike, the source gives them in different places.

Assays:
[1] = Description: Onset, Peak Temperatures and Enthalpies Thermogravimetric Analysis (TGA) Thermogravimetric analyses were performed using a Pyris 1 TGA analyser (serial number 537N7052501) in sealed aluminium pans, punctured before analysis, under nitrogen flush at 20 mL/min.
[2] = helium pycnometry; for True Density: individual runs; for True Density MEAN: mean of runs
Description: Determination of True Density by Helium Pychnometry.
Equipment used: Micromeritics AccuPyc II 1340
Run fill pressure 19.5 psig
Equilibration rate 0.02 psig
Percentage full scale 0.05%
Testing was performed in duplicate.

[3] = Heckel test (compaction simulator, yield pressure, strain rate sensitivity); conditions: for Compact observations / Ejection Force / Peak Force of Upper punch / Yield Pressure: individual runs; for Yield pressure Slow (0.1 mm/s) / Yield pressure fast (300 mm/s): summary mean of runs; for Strain rate sensitivity: yield pressure at 300 mm/s compared to 0.1 mm/s
[4] = 25° C.; for DVS weight gain at high relative humidity: 90% RH and above; for DVS weight above reference weight after sorption/desorption cycle: end of second desorption stage (0-95% RH-0%)
Description: Dynamic Vapour Sorption (DVS) Analysis DVS analyses are performed using an SMS DVS Intrinsic analyser (serial number PF 140088) in open aluminium pans at 25° C. with a nitrogen purge gas at 100 ml/min. The stability criterion was a weight change lower than 0.002% on a 5 minute time frame (with a minimum of 10 min and a maximum of 100 min).

[5] = six months at 40° C. and 75% humidity
Description: TETA.4HC obtained in accordance with Reference Example 3 was compressed to form a tablet. The tablet was aged for six months at 40° C. and 75% humidity.

[6] = fast speed 300 mm/s, listed as Ref Example 3
[7] = slow speed 0.1 mm/s, listed as Ref Example 3

Cl.Cl.Cl.Cl.NCCNCCNCCN [Example 2, triethylenetetramine tetrachloride]
TGA weight loss (total) ([1]; 25-300° C., 10° C./min): 10.24%
TGA weight loss starting temperature ([1]; 25-300° C., 10° C./min, nitrogen): 225 °C
TGA weight loss ([1]; between 225.0-289.5° C.): 2.64%
TGA weight loss ([1]; between 289.5-299.0° C.): 7.60%
True Density [2]: 1.3693 g/mL and 1.3973 g/mL and 1.3678 g/mL
True Density MEAN [2]: 1.3686 g/mL
Compact strength ([3]; fast speed 300 mm/s): 9.83 Kiloponds and 11.58 Kiloponds and 8.88 Kiloponds
Compact observations ([3]; fast speed 300 mm/s): Good shiny
Ejection Force ([3]; fast speed 300 mm/s): 0.441 kN and 0.456 kN and 0.417 kN
Peak Force of Upper punch ([3]; fast speed 300 mm/s): 14.566 kN and 14.542 kN and 14.717 kN
Yield Pressure ([3]; fast speed 300 mm/s): 129.865 Mpa and 129.108 Mpa and 129.861 Mpa
Compact strength ([3]; slow speed 0.1 mm/s): 12.07 Kiloponds and 7.52 Kiloponds and 9.64 Kiloponds and 9.19 Kiloponds
Compact observations ([3]; slow speed 0.1 mm/s): Good shiny
Ejection Force ([3]; slow speed 0.1 mm/s): 0.044 kN and 0.053 kN and 0.080 kN and 0.060 kN
Peak Force of Upper punch ([3]; slow speed 0.1 mm/s): 20.211 kN and 24.088 kN and 24.175 kN and 23.906 kN
Yield Pressure ([3]; slow speed 0.1 mm/s): 106.465 Mpa and 117.516 Mpa and 118.116 Mpa and 115.227 Mpa
Yield pressure Slow (0.1 mm/s) [3]: 114.33 Mpa (±5.39)
Yield pressure fast (300 mm/s) [3]: 129.61 Mpa (±0.44)
Strain rate sensitivity [3]: 13.4%
DVS weight gain at high relative humidity [4]: ≥ 55.8%
DVS weight gain at high relative humidity ([4]; listed as Form B): 50-59%
DVS weight above reference weight after sorption/desorption cycle [4]: almost reaches its reference weight

Cl.Cl.Cl.Cl.NCCNCCNCCN [Reference Example 3, triethylenetetramine tetrachloride, reference compound]
True Density ([2]; listed as Ref Example 3): 1.3523 g/mL and 1.3431 g/mL
True Density MEAN ([2]; listed as Ref Example 3): 1.3477 g/mL
Compact strength ([3]; fast speed 300 mm/s): 4-6 Kiloponds
Compact observations [3, 6]: Good but blistering
Ejection Force [3, 6]: 0.421 kN and 0.327 kN and 0.381 kN
Peak Force of Upper punch [3, 6]: 14.644 kN and 14.752 kN and 14.617 kN
Yield Pressure [3, 6]: 127.197 Mpa and 125.309 Mpa and 129.748 Mpa
Compact strength [3, 6]: 6.59 Kiloponds and 4.27 Kiloponds and 4.75 Kiloponds
Compact strength ([3]; slow speed 0.1 mm/s): 6-11 Kiloponds
Compact observations [3, 7]: Good
Ejection Force [3, 7]: 0.039 kN and −0.007 kN and −0.020 kN
Peak Force of Upper punch [3, 7]: 20.830 kN and 18.543 kN and 19.570 kN
Yield Pressure [3, 7]: 101.529 Mpa and 95.501 Mpa and 97.474 Mpa
Compact strength [3, 7]: 6.41 Kiloponds and 7.45 Kiloponds and 11.17 Kiloponds
Yield pressure Slow (0.1 mm/s) ([3]; listed as Ref Example 3): 98.17 Mpa
Yield pressure fast (300 mm/s) ([3]; listed as Ref Example 3): 127.42 Mpa
Strain rate sensitivity ([3]; listed as Ref Example 3): 29.8%
DVS weight gain at high relative humidity ([4]; listed as Ref Example 3): ≥ 60.8%
DVS weight above reference weight after sorption/desorption cycle ([4]; listed as Form A): 14-15%
DVS weight above reference weight after sorption/desorption cycle ([4]; listed as Ref Example 3): 14.4%
DVS weight above reference weight, minimum value reached ([4]; second desorption stage): 7.9%
Tablet appearance after aging [5]: discoloured patches
